Results: patent publication US12157741B2, “Macrocyclic inhibitors of DYRK1A” (DANA-FARBER CANCER INSTITUTE, INC., priority 2018, dated 2024)
Where two headings read alike, the source gives them in different places.

Columns and labels:
Assay type in all cases: binding
various enzymes [1] = target: various enzymes (Homo sapiens, UniProt P42680); conditions: compound 1 uM
Description: (§1) Ambit profiling was conducted in accordance with the manufacturer's instructions.

various enzymes [2] = target: various enzymes (Homo sapiens, UniProt Q16566); conditions: compound 1 uM
various enzymes (Homo sapiens, UniProt Q16566), sequence (Q16566 whole entry): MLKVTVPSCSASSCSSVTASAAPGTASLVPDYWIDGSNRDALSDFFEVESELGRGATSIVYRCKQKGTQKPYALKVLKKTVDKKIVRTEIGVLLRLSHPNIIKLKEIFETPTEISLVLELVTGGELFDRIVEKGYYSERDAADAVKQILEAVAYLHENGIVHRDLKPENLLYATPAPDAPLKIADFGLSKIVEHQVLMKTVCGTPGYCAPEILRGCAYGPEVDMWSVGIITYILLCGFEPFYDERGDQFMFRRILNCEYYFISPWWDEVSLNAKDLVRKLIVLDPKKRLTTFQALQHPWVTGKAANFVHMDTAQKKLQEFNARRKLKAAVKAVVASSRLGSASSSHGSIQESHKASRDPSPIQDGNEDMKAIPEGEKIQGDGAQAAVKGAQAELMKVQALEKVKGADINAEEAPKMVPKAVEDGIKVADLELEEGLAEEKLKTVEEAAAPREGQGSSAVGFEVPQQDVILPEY
Description: as §1

various enzymes [3] = target: various enzymes (Homo sapiens, UniProt Q92918); conditions: compound 1 uM
Description: as §1

various enzymes [4] = target: various enzymes (Homo sapiens, UniProt P04629); conditions: compound 1 uM
various enzymes (Homo sapiens, UniProt P04629), sequence (P04629 33-796): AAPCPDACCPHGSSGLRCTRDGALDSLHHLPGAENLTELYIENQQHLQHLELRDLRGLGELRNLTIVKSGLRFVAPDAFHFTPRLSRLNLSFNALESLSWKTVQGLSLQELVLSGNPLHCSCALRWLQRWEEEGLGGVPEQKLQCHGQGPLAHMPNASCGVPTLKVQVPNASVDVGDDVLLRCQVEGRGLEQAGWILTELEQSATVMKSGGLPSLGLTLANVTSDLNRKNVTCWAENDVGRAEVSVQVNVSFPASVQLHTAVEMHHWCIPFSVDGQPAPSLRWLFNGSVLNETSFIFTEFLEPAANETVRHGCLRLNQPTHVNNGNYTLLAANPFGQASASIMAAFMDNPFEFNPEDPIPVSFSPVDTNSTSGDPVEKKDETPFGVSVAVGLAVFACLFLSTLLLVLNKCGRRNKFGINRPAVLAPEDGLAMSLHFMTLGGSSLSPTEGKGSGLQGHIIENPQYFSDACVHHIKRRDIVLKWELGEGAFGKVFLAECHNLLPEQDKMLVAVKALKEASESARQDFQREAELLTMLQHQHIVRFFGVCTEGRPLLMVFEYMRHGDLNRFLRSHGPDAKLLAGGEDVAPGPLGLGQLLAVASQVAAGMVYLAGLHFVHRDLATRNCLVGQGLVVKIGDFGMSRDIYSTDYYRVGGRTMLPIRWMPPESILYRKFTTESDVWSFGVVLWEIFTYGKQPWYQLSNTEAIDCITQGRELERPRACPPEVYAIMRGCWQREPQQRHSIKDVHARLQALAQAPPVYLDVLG
Description: as §1

various enzymes [5] = target: various enzymes (Homo sapiens, UniProt P42336); conditions: compound 1 uM
various enzymes (Homo sapiens, UniProt P42336), sequence (P42336 whole entry): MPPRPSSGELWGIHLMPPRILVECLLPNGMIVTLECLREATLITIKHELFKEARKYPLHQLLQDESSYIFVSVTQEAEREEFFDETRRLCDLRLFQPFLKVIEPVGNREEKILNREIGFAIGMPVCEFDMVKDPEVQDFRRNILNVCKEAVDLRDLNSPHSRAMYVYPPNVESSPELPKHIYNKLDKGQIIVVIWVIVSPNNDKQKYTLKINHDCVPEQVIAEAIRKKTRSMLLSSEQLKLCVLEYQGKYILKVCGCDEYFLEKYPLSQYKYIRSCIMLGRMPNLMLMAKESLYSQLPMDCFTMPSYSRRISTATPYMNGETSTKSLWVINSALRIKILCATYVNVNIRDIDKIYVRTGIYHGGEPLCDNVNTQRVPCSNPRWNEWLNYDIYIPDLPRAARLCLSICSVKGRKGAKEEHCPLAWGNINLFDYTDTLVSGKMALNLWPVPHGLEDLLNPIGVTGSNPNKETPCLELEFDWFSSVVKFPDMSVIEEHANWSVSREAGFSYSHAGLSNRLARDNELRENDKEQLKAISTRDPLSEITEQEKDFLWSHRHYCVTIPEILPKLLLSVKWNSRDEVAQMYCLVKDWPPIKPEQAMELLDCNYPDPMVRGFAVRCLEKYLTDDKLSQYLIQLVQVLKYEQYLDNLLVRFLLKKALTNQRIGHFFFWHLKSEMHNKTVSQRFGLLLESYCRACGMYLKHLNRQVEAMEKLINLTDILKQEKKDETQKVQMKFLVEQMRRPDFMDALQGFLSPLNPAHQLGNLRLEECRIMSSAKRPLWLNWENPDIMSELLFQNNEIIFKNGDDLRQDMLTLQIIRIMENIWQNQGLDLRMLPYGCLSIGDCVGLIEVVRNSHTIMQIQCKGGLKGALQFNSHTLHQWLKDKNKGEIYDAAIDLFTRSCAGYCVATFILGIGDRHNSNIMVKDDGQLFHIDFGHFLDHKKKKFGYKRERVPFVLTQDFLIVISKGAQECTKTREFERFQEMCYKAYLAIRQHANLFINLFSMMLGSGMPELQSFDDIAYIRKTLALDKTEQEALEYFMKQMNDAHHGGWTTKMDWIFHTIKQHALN
Description: as §1

various enzymes [6] = target: various enzymes (Homo sapiens, UniProt O96017); conditions: compound 1 uM
Description: as §1

various enzymes [7] = target: various enzymes (Homo sapiens, UniProt P42336, H1047Y)
Description: as §1

various enzymes [8] = target: various enzymes (Homo sapiens, UniProt Q8N5S9); conditions: compound 1 uM
Description: as §1

various enzymes [9] = target: various enzymes (Homo sapiens, UniProt P42336, C420R)
various enzymes (Homo sapiens, UniProt P42336, C420R), sequence (P42336 whole entry C420R): as the sequence (P42336 whole entry) above, with C420R counted along it
Description: as §1

various enzymes [10] = target: various enzymes (Homo sapiens, UniProt Q9P286); conditions: compound 1 uM
Description: as §1

various enzymes [11] = target: various enzymes (Homo sapiens, UniProt P49761); conditions: compound 1 uM
Description: as §1

various enzymes [12] = target: various enzymes (Homo sapiens, UniProt P00533, DEL752-759); conditions: compound 1 uM
Description: as §1

various enzymes [13] = target: various enzymes (Homo sapiens, UniProt P0C1S8); conditions: compound 1 uM
Description: as §1

various enzymes [14] = target: various enzymes (Homo sapiens, UniProt Q15418); conditions: compound 1 uM
various enzymes (Homo sapiens, UniProt Q15418), sequence (Q15418 whole entry): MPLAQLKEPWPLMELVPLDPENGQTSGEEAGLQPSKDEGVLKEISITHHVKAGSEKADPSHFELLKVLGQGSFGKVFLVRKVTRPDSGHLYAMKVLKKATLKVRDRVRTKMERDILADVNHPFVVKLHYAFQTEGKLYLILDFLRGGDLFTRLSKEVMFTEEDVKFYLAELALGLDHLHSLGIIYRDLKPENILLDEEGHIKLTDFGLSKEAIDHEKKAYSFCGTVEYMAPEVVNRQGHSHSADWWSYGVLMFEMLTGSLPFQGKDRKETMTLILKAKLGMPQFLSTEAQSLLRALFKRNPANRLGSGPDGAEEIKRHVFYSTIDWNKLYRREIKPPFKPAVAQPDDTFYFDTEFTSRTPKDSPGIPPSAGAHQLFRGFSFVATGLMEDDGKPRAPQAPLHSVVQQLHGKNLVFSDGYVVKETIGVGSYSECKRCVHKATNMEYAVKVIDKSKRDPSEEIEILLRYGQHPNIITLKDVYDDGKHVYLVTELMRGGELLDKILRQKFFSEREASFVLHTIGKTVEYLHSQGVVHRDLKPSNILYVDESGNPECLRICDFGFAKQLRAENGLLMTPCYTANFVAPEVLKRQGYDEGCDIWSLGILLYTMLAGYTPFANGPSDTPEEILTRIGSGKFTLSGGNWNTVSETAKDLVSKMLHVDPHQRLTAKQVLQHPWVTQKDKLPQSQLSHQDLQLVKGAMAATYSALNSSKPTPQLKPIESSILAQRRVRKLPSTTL
Description: as §1

various enzymes [15] = target: various enzymes (Homo sapiens, UniProt Q9P1W9); conditions: compound 1 uM
Description: as §1

various enzymes [16] = target: various enzymes (Homo sapiens, UniProt P10721, V559D/V654A)
Description: as §1

various enzymes [17] = target: various enzymes (Homo sapiens, UniProt P29322); conditions: compound 1 uM
Description: as §1

various enzymes [18] = target: various enzymes (Homo sapiens, UniProt P49760); conditions: compound 1 uM
Description: as §1

various enzymes [19] = target: various enzymes (Homo sapiens, UniProt Q13557); conditions: compound 1 uM
Description: as §1

various enzymes [20] = target: various enzymes (Homo sapiens, UniProt Q52WX2); conditions: compound 1 uM
various enzymes (Homo sapiens, UniProt Q52WX2), sequence (Q52WX2 whole entry): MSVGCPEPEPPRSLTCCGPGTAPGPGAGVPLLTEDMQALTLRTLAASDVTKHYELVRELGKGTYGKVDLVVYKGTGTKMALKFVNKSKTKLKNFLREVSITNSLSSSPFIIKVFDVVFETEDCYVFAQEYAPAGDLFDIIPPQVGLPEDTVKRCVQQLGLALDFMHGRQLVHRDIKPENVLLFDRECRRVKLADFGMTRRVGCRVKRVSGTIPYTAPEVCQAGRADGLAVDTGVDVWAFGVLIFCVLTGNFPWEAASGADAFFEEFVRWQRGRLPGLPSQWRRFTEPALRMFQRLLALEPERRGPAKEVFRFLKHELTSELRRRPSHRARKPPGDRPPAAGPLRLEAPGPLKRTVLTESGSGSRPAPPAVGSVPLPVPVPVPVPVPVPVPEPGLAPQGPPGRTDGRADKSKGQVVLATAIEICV
Description: as §1

various enzymes [21] = target: various enzymes (Homo sapiens, UniProt P42336, I800L)
various enzymes (Homo sapiens, UniProt P42336, I800L), sequence (P42336 whole entry I800L): as the sequence (P42336 whole entry) above, with I800L counted along it
Description: as §1

various enzymes [22] = target: various enzymes (Homo sapiens, UniProt P19784); conditions: compound 1 uM
Description: as §1

various enzymes [23] = target: various enzymes (Homo sapiens, UniProt P06239); conditions: compound 1 uM
Description: as §1

various enzymes [24] = target: various enzymes (Homo sapiens, UniProt Q9UQ88); conditions: compound 1 uM
Description: as §1

various enzymes [25] = target: various enzymes (Homo sapiens, UniProt Q13164); conditions: compound 1 uM
Description: as §1

various enzymes [26] = target: various enzymes (Homo sapiens, UniProt P51956); conditions: compound 1 uM
Description: as §1

various enzymes [27] = target: T1, various enzymes (Homo sapiens, UniProt Q9NWZ3); conditions: compound 1 uM
T1 sequence (Q9NWZ3 1-460): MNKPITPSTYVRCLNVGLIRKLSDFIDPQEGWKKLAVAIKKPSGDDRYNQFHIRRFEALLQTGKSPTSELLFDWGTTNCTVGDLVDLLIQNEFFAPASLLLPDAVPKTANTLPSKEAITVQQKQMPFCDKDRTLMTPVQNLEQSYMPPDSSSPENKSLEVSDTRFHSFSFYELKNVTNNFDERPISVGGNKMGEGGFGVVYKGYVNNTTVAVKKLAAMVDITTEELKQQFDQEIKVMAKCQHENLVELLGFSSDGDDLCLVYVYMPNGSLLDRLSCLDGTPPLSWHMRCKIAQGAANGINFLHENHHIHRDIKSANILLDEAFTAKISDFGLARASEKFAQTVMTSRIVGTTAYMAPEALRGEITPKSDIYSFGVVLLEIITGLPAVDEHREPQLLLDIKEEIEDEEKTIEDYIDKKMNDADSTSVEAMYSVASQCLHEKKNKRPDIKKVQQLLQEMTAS
Description: as §1

various enzymes [28] = target: various enzymes (Homo sapiens, UniProt P07333); conditions: compound 1 uM
various enzymes (Homo sapiens, UniProt P07333), sequence (P07333 20-972): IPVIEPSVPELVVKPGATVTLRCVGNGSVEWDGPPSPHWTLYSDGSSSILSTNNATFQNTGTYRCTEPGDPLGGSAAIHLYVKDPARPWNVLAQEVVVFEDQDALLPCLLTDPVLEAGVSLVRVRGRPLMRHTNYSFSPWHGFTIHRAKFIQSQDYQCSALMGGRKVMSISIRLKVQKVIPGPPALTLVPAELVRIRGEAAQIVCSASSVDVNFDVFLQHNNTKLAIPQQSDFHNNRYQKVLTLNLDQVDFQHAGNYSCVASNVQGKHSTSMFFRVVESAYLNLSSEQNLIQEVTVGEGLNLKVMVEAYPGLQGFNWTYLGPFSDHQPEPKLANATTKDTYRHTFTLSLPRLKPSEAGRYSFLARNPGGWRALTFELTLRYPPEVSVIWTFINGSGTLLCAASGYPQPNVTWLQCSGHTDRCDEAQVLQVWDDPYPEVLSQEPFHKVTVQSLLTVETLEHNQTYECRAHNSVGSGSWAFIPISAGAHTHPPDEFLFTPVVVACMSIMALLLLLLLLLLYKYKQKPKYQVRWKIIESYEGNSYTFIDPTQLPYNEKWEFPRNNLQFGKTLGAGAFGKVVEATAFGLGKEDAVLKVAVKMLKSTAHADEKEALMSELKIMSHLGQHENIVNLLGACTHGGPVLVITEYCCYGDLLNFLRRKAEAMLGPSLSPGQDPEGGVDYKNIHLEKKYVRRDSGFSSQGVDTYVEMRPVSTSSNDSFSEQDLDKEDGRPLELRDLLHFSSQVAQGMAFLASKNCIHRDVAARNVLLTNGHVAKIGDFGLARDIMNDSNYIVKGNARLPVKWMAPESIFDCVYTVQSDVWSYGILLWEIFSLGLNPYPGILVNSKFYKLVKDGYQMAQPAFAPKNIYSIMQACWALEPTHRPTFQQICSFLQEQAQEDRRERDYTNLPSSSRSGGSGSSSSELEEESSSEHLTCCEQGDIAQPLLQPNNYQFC
Description: as §1

various enzymes [29] = target: various enzymes (Homo sapiens, UniProt O60674); conditions: compound 1 uM
Description: as §1

various enzymes [30] = target: various enzymes (Homo sapiens, UniProt Q8NI60); conditions: compound 1 uM
Description: as §1

various enzymes [31] = target: various enzymes (Homo sapiens, UniProt Q6XUX3); conditions: compound 1 uM
Description: as §1

various enzymes [32] = target: various enzymes (Homo sapiens, UniProt Q9NRP7); conditions: compound 1 uM
Description: as §1

various enzymes [33] = target: various enzymes (Homo sapiens, UniProt Q13131); conditions: compound 1 uM
various enzymes (Homo sapiens, UniProt Q13131), sequence (Q13131 whole entry): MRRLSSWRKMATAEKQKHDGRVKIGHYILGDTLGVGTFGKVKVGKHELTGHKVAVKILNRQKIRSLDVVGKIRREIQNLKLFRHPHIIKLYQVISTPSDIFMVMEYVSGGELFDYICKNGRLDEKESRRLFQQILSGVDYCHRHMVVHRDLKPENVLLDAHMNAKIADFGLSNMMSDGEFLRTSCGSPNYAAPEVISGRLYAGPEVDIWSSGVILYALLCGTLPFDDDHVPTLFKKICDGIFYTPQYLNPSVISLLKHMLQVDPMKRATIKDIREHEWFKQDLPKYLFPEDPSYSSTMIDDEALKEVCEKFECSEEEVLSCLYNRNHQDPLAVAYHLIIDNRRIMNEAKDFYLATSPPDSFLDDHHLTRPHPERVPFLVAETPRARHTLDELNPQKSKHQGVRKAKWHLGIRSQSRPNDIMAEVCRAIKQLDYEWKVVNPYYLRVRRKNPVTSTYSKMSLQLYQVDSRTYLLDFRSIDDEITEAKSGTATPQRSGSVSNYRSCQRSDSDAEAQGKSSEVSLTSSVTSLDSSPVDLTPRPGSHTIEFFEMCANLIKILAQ
Description: as §1

| SMILES | Ambit profiling: TEC (various enzymes [1]) | Ambit profiling: CAMK4 (various enzymes [2]) | Ambit profiling: HPK1 (various enzymes [3]) | Ambit profiling: PIK3CA (various enzymes [5]) | Ambit profiling: CHEK2 (various enzymes [6]) | Ambit profiling: CAMKK1 (various enzymes [8]) | Ambit profiling: PAK7 (various enzymes [10]) | Ambit profiling: CLK3 (various enzymes [11]) | Ambit profiling: EGFR(S752-I759del) (various enzymes [12]) | Ambit profiling: WEE2 (various enzymes [13]) | Ambit profiling: RSK1(Kin.Dom.1-N-terminal) (various enzymes [14]) | Ambit profiling: RSK1(Kin.Dom.2-C-terminal) (various enzymes [14]) | Ambit profiling: PIM2 (various enzymes [15]) | Ambit profiling: EPHA8 (various enzymes [17]) | Ambit profiling: CLK2 (various enzymes [18]) | Ambit profiling: CAMK2D (various enzymes [19]) | Ambit profiling: SBK1 (various enzymes [20]) | Ambit profiling: CSNK2A2 (various enzymes [22]) | Ambit profiling: LCK (various enzymes [23]) | Ambit profiling: CDC2L2 (various enzymes [24]) | other results |
| --- | --- | --- | --- | --- | --- | --- | --- | --- | --- | --- | --- | --- | --- | --- | --- | --- | --- | --- | --- | --- | --- |
| CC(C)N1Cc2nn(C)cc2-c2cnc3[nH]cc(c3c2)-c2cn(nc2C(F)(F)F)CCCC1=O [Compound 45, (Z)-5-isopropyl-31-methyl-13-(trifluoromethyl)-11H,21H,31H-5-aza-2(3,5)-pyrrolo[2,3-b]pyridina-1(4,1),3(4,3)-dipyrazolacyclononaphan-6-one] | 97 | 100 | 5.9 | 100 | 82 | 3.6 | 51 | 33 | 66 | 100 | 17 | 85 | 100 | 8.7 | 4.3 | 15 | 100 | 1.8 | 0.65 | 100 | Ambit profiling: TRKA (various enzymes [4]): 0; Ambit profiling: PIK3CA(H1047Y) (various enzymes [7]; compound 1 uM): 84; Ambit profiling: PIK3CA(C420R) (various enzymes [9]; compound 1 uM): 100; Ambit profiling: KIT(V559D, V654A) (various enzymes [16]; compound 1 uM): 100; Ambit profiling: PIK3CA(I800L) (various enzymes [21]; compound 1 uM): 87; Ambit profiling: ERK5 (various enzymes [25]): 100; Ambit profiling: NEK3 (various enzymes [26]): 50; Ambit profiling: IRAK4 (various enzymes [27]): 39; Ambit profiling: CSF1R (various enzymes [28]): 8.4; Ambit profiling: CSF1R-autoinhibited (various enzymes [28]): 39; Ambit profiling: JAK2(JH1domain-catalytic) (various enzymes [29]): 4.9; Ambit profiling: ADCK3 (various enzymes [30]): 100; Ambit profiling: RIPK5 (various enzymes [31]): 27; Ambit profiling: STK36 (various enzymes [32]): 100; Ambit profiling: AMPK-alpha1 (various enzymes [33]): 50 |
| COc1c2c(nn1C)CN(C(C)C)C(=O)CCCn1cc(c(C(F)(F)F)n1)-c1c[nH]c3ncc-2cc13 [Compound 50, (Z)-5-isopropyl-35-methoxy-31-methyl-13-(trifluoromethyl)-11H,21H,31H-5-aza-2(3,5)-pyrrolo[2,3-b]pyridina-1(4,1),3(4,3)-dipyrazolacyclononaphan-6-one] | 32 | 100 | 0 | 83 | 80 | 8 | 100 | 26 | 48 | 73 | 3.8 | 81 | 100 | 26 | 11 | 20 | 98 | 8.7 | 1.9 | 89 | Ambit profiling: TBKA (various enzymes [4]): 0; Ambit profiling: PIK3CA(H1047Y) (various enzymes [7]): 100; Ambit profiling: PIK3CA(C420R) (various enzymes [9]): 91; Ambit profiling: KIT(V559D, V654A) (various enzymes [16]): 70; Ambit profiling: PIK3CA(I800L) (various enzymes [21]): 86; Ambit profiling: ERK5 (various enzymes [25]): 70; Ambit profiling: NEK3 (various enzymes [26]): 51; Ambit profiling: IRAK4 (various enzymes [27]): 20; Ambit profiling: CSF1R (various enzymes [28]): 3.3; Ambit profiling: CSF1R-autoinhibited (various enzymes [28]): 27; Ambit profiling: JAK2(JH1domain-catalytic) (various enzymes [29]): 29; Ambit profiling: ADCK3 (various enzymes [30]): 73; Ambit profiling: RIPK5 (various enzymes [31]): 95; Ambit profiling: STK36 (various enzymes [32]): 100; Ambit profiling: AMPK-alpha1 (various enzymes [33]): 90 |
